This note sets out measurements from patent US9840478B2 (MERCK SHARP & DOHME CORP., priority 2013, dated 2017).

The assay relates to HIV-1 (H9IIIB strain). Kind of assay: Cell-based HIV infection assay using a reporter (Cell-Based), MT4-GFP cells. The conditions noted are these: 50% normal human serum, mean of at least two independent experiments, read-out: Cell-based IP. A digest of the protocol:
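MT4-GFP cells (HIV LTR-driven GFP) infected 24 h with HIV-1 H9IIIB at low MOI, then washed and plated with compounds in RPMI + 50% normal human serum, 0.4% DMSO final. Green cells counted at 24 and 48 h; R0 = 48 h/24 h ratio, inhibition normalized to DMSO and triple-drug control; IC50 from 4-parameter fit.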

Setting [1] is: Human immunodeficiency virus 1, MT4-GFP cells infected with HIV-1 H9IIIB.
[2] abbreviates: MT4-GFP cells infected with HIV-1 H9IIIB.

Structures are written as SMILES. Where two headings read alike, the source gives them in different places.

Consider `COc1ccc(S(=O)(=O)N2[C@@H](CCc3c(F)cccc3NC(=O)[C@@H](N)[C@@H](c3cccc(Cl)c3)C(C)C)CNC[C@@H]2C)cc1` [Example 249, (βR)-3-chloro-N-[3-fluoro-2-(2-{(2S,6S)-1-[(4-methoxyphenyl)sulfonyl]-6-methylpiperazin-2-yl}ethyl)phenyl]-β-(1-methylethyl)-L-phenylalaninamide], for which, under setting [1], the IC50 was found to be 53 nM.

For `COC(=O)N[C@H](C(=O)Nc1cccc(F)c1CC[C@H]1CNC[C@H](C)N1S(=O)(=O)c1ccc(OC)cc1)[C@@H](c1cccc(Cl)c1)C(C)C` [Example 250, (βR)-3-chloro-N-[3-fluoro-2-(2-{(2S,6S)-1-[(4-methoxyphenyl)sulfonyl]-6-methylpiperazin-2-yl}ethyl)phenyl]-Nα-(methoxycarbonyl)-β-(1-methylethyl)-L-phenylalaninamide], the IC50 under setting [1] is 34 nM.

On to `COc1ccc(S(=O)(=O)N2[C@@H](CCc3c(F)cccc3NC(=O)[C@@H](N)[C@@H](c3ccc(F)cc3)c3cc(F)cc(F)c3)CNC[C@@H]2C)cc1` [Example 251, (βS)-β-(3,5-difluorophenyl)-4-fluoro-N-[3-fluoro-2-(2-{(2S,6S)-1-[(4-methoxyphenyl)sulfonyl]-6-methylpiperazin-2-yl}ethyl)phenyl]-L-phenylalaninamide], for which the IC50 under setting [1] amounted to 4.1 nM.

For `COC(=O)N[C@H](C(=O)Nc1cccc(F)c1CC[C@H]1CNC[C@H](C)N1S(=O)(=O)c1ccc(OC)cc1)[C@@H](c1ccc(F)cc1)c1cc(F)cc(F)c1` [Example 252, (βS)-β-(3,5-difluorophenyl)-4-fluoro-N-[3-fluoro-2-(2-{(2S,6S)-1-[(4-methoxyphenyl)sulfonyl]-6-methylpiperazin-2-yl}ethyl)phenyl]-Nα-(methoxycarbonyl)-L-phenylalaninamide], the IC50 under setting [1] was determined as 7.9 nM.

In the case of `COC(=O)N[C@H](C(=O)Nc1cccc(F)c1CC[C@H]1CNC[C@H](C)N1S(=O)(=O)c1ccccc1)[C@H](c1cncc(F)c1)c1cccc(Cl)c1` [Example 253, (βS)-3-chloro-N-(3-fluoro-2-{2-[(2S,6S)-6-methyl-1-(phenylsulfonyl)piperazin-2-yl]ethyl}phenyl)-β-(5-fluoropyridin-3-yl)-Nα-(methoxycarbonyl)-L-phenylalaninamide], the IC50 under setting [1] was 24 nM.

As to `CC(C)[C@H](c1ccc(Cl)cc1)[C@H](N)C(=O)Nc1cncc(F)c1CC[C@H]1CNC[C@@H](C)N1S(=O)(=O)c1ccccc1` [Example 254, (βR)-4-chloro-N-(5-fluoro-4-{2-[(2S,6R)-6-methyl-1-(phenylsulfonyl)piperazin-2-yl]ethyl}pyridin-3-yl)-β-(1-methylethyl)-L-phenylalaninamide], the IC50 under setting [1] was 16 nM.

With `C[C@@H]1CNC[C@H](CCc2c(F)cccc2NC(=O)[C@@H](N)[C@@H](c2ccc(F)cc2)c2cc(F)cc(F)c2)N1S(=O)(=O)c1ccc(OC(F)(F)F)cc1` [Example 255, (βS)-β-(3,5-difluorophenyl)-4-fluoro-N-(3-fluoro-2-{2-[(2S,6R)-6-methyl-1-{[4-(trifluoromethoxy)phenyl]sulfonyl}piperazin-2-yl]ethyl}phenyl)-L-phenylalaninamide], the IC50 under setting [1] was 59 nM.

`CC(C)OCC1CNC[C@H](CCc2c(F)cccc2NC(=O)[C@@H](N)[C@@H](c2ccc(F)cc2)c2cc(F)cc(F)c2)N1S(=O)(=O)C1CC1` (stereo partly drawn) [Example 256, (βS)-N-[2-(2-{(2S)-1-(cyclopropylsulfonyl)-6-[(1-methylethoxy)methyl]piperazin-2-yl}ethyl)-3-fluorophenyl]-β-(3,5-difluorophenyl)-4-fluoro-L-phenylalaninamide]: the IC50 under setting [2] was determined as 73 nM.

As to `COC(=O)N[C@H](C(=O)Nc1cccc(F)c1CC[C@H]1CNC[C@@H](C)N1S(=O)(=O)C1CC1)[C@@H](c1ccc(F)cc1)c1cc(F)cc(F)c1` [Example 257, (βS)-N-(2-{2-[(2S,6R)-1-(cyclopropylsulfonyl)-6-methylpiperazin-2-yl]ethyl}-3-fluorophenyl)-β-(3,5-difluorophenyl)-4-fluoro-Nα-(methoxycarbonyl)-L-phenylalaninamide], the IC50 under setting [1] turned out to be 27 nM.

Regarding `C[C@H]1CNC[C@H](CCc2c(F)cccc2NC(=O)[C@@H](N)[C@@H](c2ccc(F)cc2)c2cc(F)cc(F)c2)N1S(C)(=O)=O` [Example 258, (βS)-β-(3,5-difluorophenyl)-4-fluoro-N-(3-fluoro-2-{2-[(2S,6S)-6-methyl-1-(methylsulfonyl)piperazin-2-yl]ethyl}phenyl)-L-phenylalaninamide], the IC50 under setting [1] is 31 nM.

As to `COC(=O)N[C@H](C(=O)Nc1cccc(F)c1CC[C@H]1CNC[C@H](C)N1S(C)(=O)=O)[C@@H](c1ccc(F)cc1)c1cc(F)cc(F)c1` [Example 259, (βS)-β-(3,5-difluorophenyl)-4-fluoro-N-(3-fluoro-2-{2-[(2S,6S)-6-methyl-1-(methylsulfonyl)piperazin-2-yl]ethyl}phenyl)-Nα-(methoxycarbonyl)-L-phenylalaninamide], under setting [2], the IC50 was 18 nM.

In the case of `COCC1CNC[C@H](CCc2c(F)cccc2NC(=O)[C@@H](N)[C@@H](c2ccc(Cl)cc2)C2CCOCC2)N1S(C)(=O)=O` (stereo partly drawn) [Example 260, (βR)-4-chloro-N-(3-fluoro-2-{2-[(2S)-6-(methoxymethyl)-1-(methylsulfonyl)piperazin-2-yl]ethyl}phenyl)-β-(tetrahydro-2H-pyran-4-yl)-L-phenylalaninamide], the IC50 under setting [2] was found to be 140 nM.

Turning to `C[C@@H]1CNC[C@H](CCc2c(F)cccc2NC(=O)[C@@H](N)[C@H](c2cncc(F)c2)c2cccc(Cl)c2)N1S(=O)(=O)c1ccccc1` [Example 261, (βS)-3-chloro-N-(3-fluoro-2-{2-[(2S,6R)-6-methyl-1-(phenylsulfonyl)piperazin-2-yl]ethyl}phenyl)-β-(5-fluoropyridin-3-yl)-L-phenylalaninamide], the IC50 under setting [1] was 70 nM.

With `CC[C@H]1CNC[C@H](CCc2c(F)cccc2NC(=O)[C@@H](N)[C@@H](c2ccc(F)cc2)c2cc(F)cc(F)c2)N1S(C)(=O)=O` [Example 262, (βS)-β-(3,5-difluorophenyl)-N-(2-{2-[(2S,6S)-6-ethyl-1-(methylsulfonyl)piperazin-2-yl]ethyl}-3-fluorophenyl)-4-fluoro-L-phenylalaninamide], the IC50 under setting [1] was determined as 25 nM.

As for `CC[C@@H]1CNC[C@H](CCc2c(F)cccc2NC(=O)[C@@H](N)[C@@H](c2ccc(F)cc2)c2cc(F)cc(F)c2)N1S(C)(=O)=O` [Example 263, (βS)-β-(3,5-difluorophenyl)-N-(2-{2-[(2S,6R)-6-ethyl-1-(methylsulfonyl)piperazin-2-yl]ethyl}-3-fluorophenyl)-4-fluoro-L-phenylalaninamide], under setting [1], the IC50 was found to be 77 nM.

Consider `C[C@@H]1CNC[C@H](CCc2c(F)cccc2NC(=O)[C@@H](N)[C@@H](c2ccc(Cl)cc2)C2CCOCC2)N1S(=O)(=O)c1ccc(C(F)F)cc1` [Example 264, (βR)-4-chloro-N-(2-{2-[(2S,6R)-1-{[4-(difluoromethyl)phenyl]sulfonyl}-6-methylpiperazin-2-yl]ethyl}-3-fluorophenyl)-β-(tetrahydro-2H-pyran-4-yl)-L-phenylalaninamide], for which the IC50 under setting [1] worked out at 69 nM.

Take `CC[C@@H]1CNC[C@H](CCc2c(F)cccc2NC(=O)[C@@H](N)[C@@H](c2ccc(Cl)cc2)C2CCOCC2)N1S(C)(=O)=O` [Example 265, (βR)-4-chloro-N-(2-{2-[(2S,6R)-6-ethyl-1-(methylsulfonyl)piperazin-2-yl]ethyl}-3-fluorophenyl)-β-(tetrahydro-2H-pyran-4-yl)-L-phenylalaninamide]: the IC50 under setting [1] came out at 260 nM.

Take `COC(=O)NC(C(=O)Nc1cccc(F)c1CC[C@H]1CNC[C@@H](C)N1S(=O)(=O)c1ccc(C(F)F)cc1)[C@@H](c1ccc(Cl)cc1)C1CCOCC1` (some centres unmarked) [Example 266]: the IC50 under setting [1] is 26 nM.

As to `CC[C@@H]1CNC[C@H](CCc2c(F)cccc2NC(=O)[C@@H](NC(=O)OC)[C@@H](c2ccc(Cl)cc2)C2CCOCC2)N1S(=O)(=O)c1ccccc1` [Example 267, methyl ((1R,2S)-1-(4-chlorophenyl)-3-((2-(2-((2S,6R)-6-ethyl-1-(phenylsulfonyl)piperazin-2-yl)ethyl)-3-fluorophenyl)amino)-3-oxo-1-(tetrahydro-2H-pyran-4-yl)propan-2-yl)carbamate], under setting [1], the IC50 came to 24 nM.

In the case of `CC[C@H]1CNC[C@H](CCc2c(F)cccc2NC(=O)[C@@H](NC(=O)OC)[C@@H](c2ccc(Cl)cc2)C2CCOCC2)N1S(=O)(=O)c1ccccc1` [Example 268, methyl ((1R,2S)-1-(4-chlorophenyl)-3-((2-(2-((2S,6S)-6-ethyl-1-(phenylsulfonyl)piperazin-2-yl)ethyl)-3-fluorophenyl)amino)-3-oxo-1-(tetrahydro-2H-pyran-4-yl)propan-2-yl) carbamate], the IC50 under setting [1] amounted to 14 nM.

Regarding `CC[C@H]1CNC[C@H](CCc2c(F)cccc2NC(=O)[C@@H](NC(=O)OC)[C@@H](c2ccc(F)cc2)c2cc(F)cc(F)c2)N1S(C)(=O)=O` [Example 269, (βS)-β-(3,5-difluorophenyl)-N-(2-{2-[(2S,6S)-6-ethyl-1-(methylsulfonyl)piperazin-2-yl]ethyl}-3-fluorophenyl)-4-fluoro-Nα-(methoxycarbonyl)-L-phenylalaninamide], under setting [1], the IC50 amounted to 9.9 nM.

Regarding `CC[C@@H]1CNC[C@H](CCc2c(F)cccc2NC(=O)[C@@H](NC(=O)OC)[C@@H](c2ccc(F)cc2)c2cc(F)cc(F)c2)N1S(C)(=O)=O` [Example 270, (βS)-β-(3,5-difluorophenyl)-N-(2-{2-[(2S,6R)-6-ethyl-1-(methylsulfonyl)piperazin-2-yl]ethyl}-3-fluorophenyl)-4-fluoro-Nα-(methoxycarbonyl)-L-phenylalaninamide], the IC50 under setting [1] was 24 nM.

`CC(C)[C@H](c1ccc(Cl)cc1)[C@H](N)C(=O)Nc1cccc(F)c1CC[C@H]1CNC[C@H](C)N1S(=O)(=O)c1ccccc1Cl` [Example 271, (βR)-4-chloro-N-[2-(2-{(2S,6S)-1-[(2-chlorophenyl)sulfonyl]-6-methylpiperazin-2-yl}ethyl)-3-fluorophenyl]-β-(1-methylethyl)-L-phenylalaninamide]: the IC50 under setting [1] was 1200 nM.
